{
  "source": "patent US9944646B2",
  "about": "“Bicyclic azaheterocyclobenzylamines as PI3K inhibitors” (Incyte Corporation, priority 2012, dated 2018)",
  "data": [
    {"target": "PI3Kδ (Homo sapiens (Human), UniProt O00329)", "sequence (O00329 whole entry, canonical isoform)": "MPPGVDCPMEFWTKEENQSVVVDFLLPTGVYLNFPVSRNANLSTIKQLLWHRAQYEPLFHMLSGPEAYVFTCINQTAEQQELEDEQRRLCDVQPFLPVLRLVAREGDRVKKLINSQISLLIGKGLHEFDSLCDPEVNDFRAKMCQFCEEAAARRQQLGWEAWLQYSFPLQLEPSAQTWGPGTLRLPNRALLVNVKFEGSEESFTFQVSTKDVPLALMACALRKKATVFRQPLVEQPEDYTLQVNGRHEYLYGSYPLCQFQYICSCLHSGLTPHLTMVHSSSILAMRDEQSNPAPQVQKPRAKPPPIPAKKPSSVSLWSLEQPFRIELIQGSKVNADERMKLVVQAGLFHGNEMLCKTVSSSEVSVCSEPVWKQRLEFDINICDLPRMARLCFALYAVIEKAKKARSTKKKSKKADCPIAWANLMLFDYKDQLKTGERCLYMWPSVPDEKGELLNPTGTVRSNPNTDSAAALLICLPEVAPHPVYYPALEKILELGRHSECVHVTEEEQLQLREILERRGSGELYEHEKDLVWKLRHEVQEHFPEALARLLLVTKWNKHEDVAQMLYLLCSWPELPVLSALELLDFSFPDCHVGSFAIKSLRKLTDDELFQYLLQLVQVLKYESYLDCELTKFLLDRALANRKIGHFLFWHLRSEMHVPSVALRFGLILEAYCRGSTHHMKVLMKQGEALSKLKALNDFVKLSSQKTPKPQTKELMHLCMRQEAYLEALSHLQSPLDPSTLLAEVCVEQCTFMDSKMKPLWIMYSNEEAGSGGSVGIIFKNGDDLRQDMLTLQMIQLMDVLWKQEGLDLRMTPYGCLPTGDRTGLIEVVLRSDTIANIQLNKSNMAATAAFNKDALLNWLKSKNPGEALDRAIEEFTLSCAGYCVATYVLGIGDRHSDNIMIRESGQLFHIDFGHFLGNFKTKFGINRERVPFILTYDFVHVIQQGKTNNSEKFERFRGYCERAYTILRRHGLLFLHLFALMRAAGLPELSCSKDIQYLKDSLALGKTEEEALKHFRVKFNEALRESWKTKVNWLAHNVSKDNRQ", "sequence (P27986 whole entry partner, canonical isoform)": "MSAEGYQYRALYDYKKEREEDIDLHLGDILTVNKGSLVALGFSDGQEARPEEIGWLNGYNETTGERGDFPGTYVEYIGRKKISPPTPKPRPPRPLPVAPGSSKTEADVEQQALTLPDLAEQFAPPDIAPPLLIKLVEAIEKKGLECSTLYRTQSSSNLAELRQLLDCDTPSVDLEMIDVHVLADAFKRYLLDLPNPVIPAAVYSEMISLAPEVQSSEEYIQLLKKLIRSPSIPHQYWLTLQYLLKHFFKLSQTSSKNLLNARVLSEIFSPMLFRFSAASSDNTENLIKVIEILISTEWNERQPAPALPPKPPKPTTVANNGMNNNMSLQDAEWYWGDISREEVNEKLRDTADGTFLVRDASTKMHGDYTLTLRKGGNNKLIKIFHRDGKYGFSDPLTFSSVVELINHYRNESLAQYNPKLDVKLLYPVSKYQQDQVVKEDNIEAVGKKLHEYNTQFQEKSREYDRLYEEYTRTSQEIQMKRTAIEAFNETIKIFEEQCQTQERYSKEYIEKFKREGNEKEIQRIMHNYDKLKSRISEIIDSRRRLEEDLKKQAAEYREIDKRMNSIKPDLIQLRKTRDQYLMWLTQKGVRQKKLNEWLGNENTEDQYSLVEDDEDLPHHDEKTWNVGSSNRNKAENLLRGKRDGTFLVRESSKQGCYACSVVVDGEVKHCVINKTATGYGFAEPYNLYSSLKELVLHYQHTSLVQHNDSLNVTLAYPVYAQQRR", "assay": "PI3K Enzyme Assay (Example A2), [γ-33P]ATP filter plate", "assay_type": "biochemical", "description": "Example A2: PI3K Enzyme Assay\nLipid kinase substrate, phosphoinositol-4,5-bisphosphate (PIP2), are purchased from Echelon Biosciences (Salt Lake City, Utah). PI3K isoforms α, β, δ and γ are purchased from Millipore (Bedford, Mass.). ATP, MgCl2, DTT, EDTA, MOPS and CHAPS are purchased from Sigma-Aldrich (St. Louis, Mo.).\nThe kinase reaction are conducted in clear-bottom 96-well plate from Thermo Fisher Scientific in a final volume of 24 μL. Inhibitors are first diluted serially in DMSO and added to the plate wells before the addition of other reaction components. The final concentration of DMSO in the assay is 0.5%. The PI3K assays are carried out at room temperature in 20 mM MOPS, pH 6.7, 10 mM MgCl2, 5 mM DTT and CHAPS 0.03%. The reaction mixture is prepared containing 50 µM PIP2, kinase and varying concentration of inhibitors. Reactions are initiated by the addition of ATP containing 2.2 μCi [γ-^33P]ATP to a final concentration of 1000 μM. The final concentration of PI3K isoforms α, β, δ and γ in the assay were 1.3, 9.4, 2.9 and 10.8 nM, respectively. Reactions are incubated for 180 minutes and terminated by the addition of 100 μL of 1 M potassium phosphate pH 8.0, 30 mM EDTA quench buffer. A 100 μL aliquot of the reaction solution are then transferred to 96-well Millipore MultiScreen IP […] PVDF filter plate (The filter plate is prewetted with 200 μL 100% ethanol, distilled water, and 1 M potassium phosphate pH 8.0, respectively). The filter plate is aspirated on a Millipore Manifold under vacuum and washed with 18×200 μL wash buffer containing 1 M potassium phosphate pH 8.0 and 1 mM ATP. After drying by aspiration and blotting, the plate is air dried in an incubator at 37° C. overnight. Packard TopCount adapter (Millipore) is then attached to the plate followed with addition of 120 μL Microscint 20 scintillation cocktail (Perkin Elmer) in each well. After the plate sealing, the radioactivity of the product is determined by scintillation counting on Topcount (Perkin-Elmer). IC50 determination is performed by fitting the curve of percent control activity versus the log of the inhibitor concentration using the GraphPad Prism 3.0 software.", "units": {"IC50": "nM"}, "values": [
      {"compound": "CCOC(=O)N1CC(N2Cc3c(C#N)c(Cl)cc(C(C)n4nc(C)c5c(N)ncnc54)c3OC(C)C2)C1", "note": "(single isomer, unassigned) [Example 100, ethyl 3-[9-[1-(4-amino-3-methyl-1H-pyrazolo[3,4-d]pyrimidin-1-yl)ethyl]-7-chloro-6-cyano-2-methyl-2,3-dihydro-1,4-benzoxazepin-4(5H)-yl]azetidine-1-carboxylate]", "IC50": "≤ 100"},
      {"compound": "CCOC(=O)N1CC(N2CCOc3c(C(C)n4nc(C)c5c(N)ncnc54)cc(Cl)c(C#N)c3C2)C1", "note": "(stereo not shown) [Example 92, ethyl 3-[9-[1-(4-amino-3-methyl-1H-pyrazolo[3,4-d]pyrimidin-1-yl)ethyl]-7-chloro-6-cyano-2,3-dihydro-1,4-benzoxazepin-4(5H)-yl]azetidine-1-carboxylate]", "IC50": "≤ 100"},
      {"compound": "Cc1nn(C(C)c2cc(Cl)c(F)c3c2O[C@@H](C)CN(C2CC(C(N)=O)C2)C3)c2ncnc(N)c12", "note": "(stereo partly shown) [Example 43]", "IC50": "≤ 100"},
      {"compound": "CC(=O)NC1CC(N2Cc3c(C#N)c(Cl)cc(C(C)n4nc(C)c5c(N)ncnc54)c3OC(C)C2)C1", "note": "(single isomer, unassigned) [Example 68, N-{3-[9-[1-(4-Amino-3-methyl-1H-pyrazolo[3,4-d]pyrimidin-1-yl)ethyl]-7-chloro-6-cyano-2-methyl-2,3-dihydro-1,4-benzoxazepin-4(5H)-yl]cyclobutyl}acetamide]", "IC50": "≤ 100"},
      {"compound": "Cc1nn(C(C)c2cc(Cl)c(C#N)c3c2OC(C)CN(C2CN(CCO)C2)C3)c2ncnc(N)c12", "note": "(single isomer, unassigned) [Example 104, 9-[1-(4-amino-3-methyl-1H-pyrazolo[3,4-d]pyrimidin-1-yl)ethyl]-7-chloro-4-[1-(2-hydroxyethyl)azetidin-3-yl]-2-methyl-2,3,4,5-tetrahydro-1,4-benzoxazepine-6-carbonitrile]", "IC50": "≤ 100"},
      {"compound": "Cc1nn(C(C)c2cc(Cl)c(C#N)c3c2OC(C)CN(Cc2cccnc2)C3)c2ncnc(N)c12", "note": "(single isomer, unassigned) [Example 60, 9-[1-(4-Amino-3-methyl-1H-pyrazolo[3,4-d]pyrimidin-1-yl)ethyl]-7-chloro-2-methyl-4-(pyridin-3-ylmethyl)-2,3,4,5-tetrahydro-1,4-benzoxazepine-6-carbonitrile]", "IC50": "≤ 100"},
      {"compound": "Cc1nn(C(C)c2cc(Cl)c(F)c3c2OC[C@H](C)N(S(C)(=O)=O)C3)c2ncnc(N)c12", "note": "(single isomer, unassigned) [Example 35]", "IC50": "≤ 100"},
      {"compound": "Cc1nn(C(C)c2cc(Cl)c(F)c3c2OC(C)CN(C2CN(S(N)(=O)=O)C2)C3)c2ncnc(N)c12", "note": "(single isomer, unassigned) [Example 81, 3-[9-[1-(4-amino-3-methyl-1H-pyrazolo[3,4-d]pyrimidin-1-yl)ethyl]-7-chloro-6-fluoro-2-methyl-2,3-dihydro-1,4-benzoxazepin-4(5H)-yl]azetidine-1-sulfonamide]", "IC50": "≤ 100"},
      {"compound": "CCC(=O)N1CC(N2Cc3c(C#N)c(Cl)cc(C(C)n4nc(C)c5c(N)ncnc54)c3OC(C)C2)C1", "note": "(single isomer, unassigned) [Example 95, 9-[1-(4-amino-3-methyl-1H-pyrazolo[3,4-d]pyrimidin-1-yl)ethyl]-7-chloro-2-methyl-4-(1-propionylazetidin-3-yl)-2,3,4,5-tetrahydro-1,4-benzoxazepine-6-carbonitrile]", "IC50": "≤ 100"},
      {"compound": "Cc1nn(C(C)c2cc(Cl)c(C#N)c3c2OC(C)CN(C2CN(CC(N)=O)C2)C3)c2ncnc(N)c12", "note": "(single isomer, unassigned) [Example 53, 2-{3-[9-[1-(4-Amino-3-methyl-1H-pyrazolo[3,4-d]pyrimidin-1-yl)ethyl]-7-chloro-6-cyano-2-methyl-2,3-dihydro-1,4-benzoxazepin-4(5H)-yl]azetidin-1-yl}acetamide]", "IC50": "≤ 100"},
      {"compound": "CC(=O)N1CC(N2Cc3c(F)c(Cl)cc(C(C)n4nc(C)c5c(N)ncnc54)c3OC(C)C2=O)C1", "note": "(single isomer, unassigned) [Example 72, 4-(1-Acetylazetidin-3-yl)-9-[1-(4-amino-3-methyl-1H-pyrazolo[3,4-d]pyrimidin-1-yl)ethyl]-7-chloro-6-fluoro-2-methyl-4,5-dihydro-1,4-benzoxazepin-3(2H)-one]", "IC50": "100 to 500"},
      {"compound": "COC(=O)N1CC(N2Cc3c(F)c(Cl)cc(C(C)n4nc(C)c5c(N)ncnc54)c3OC(C)C2)C1", "note": "(single isomer, unassigned) [Example 80, methyl 3-[9-[1-(4-amino-3-methyl-1H-pyrazolo[3,4-d]pyrimidin-1-yl)ethyl]-7-chloro-6-fluoro-2-methyl-2,3-dihydro-1,4-benzoxazepin-4(5H)-yl]azetidine-1-carboxylate]", "IC50": "≤ 100"},
      {"compound": "CNC(=O)C1CC(N2Cc3c(C#N)c(Cl)cc(C(C)n4nc(C)c5c(N)ncnc54)c3OC(C)C2)C1", "note": "(single isomer, unassigned) [Example 115, 3-[9-[1-(4-amino-3-methyl-1H-pyrazolo[3,4-d]pyrimidin-1-yl)ethyl]-7-chloro-6-cyano-2-methyl-2,3-dihydro-1,4-benzoxazepin-4(5H)-yl]-N-methylcyclobutanecarboxamide]", "IC50": "≤ 100"},
      {"compound": "CC(=O)N1CC(N2CCOc3c(C(C)n4nc(C)c5c(N)ncnc54)cc(Cl)c(F)c3C2)C1", "note": "(stereo not shown) [Example 34, 1-{1-[4-(1-Acetylazetidin-3-yl)-7-chloro-6-fluoro-2,3,4,5-tetrahydro-1,4-benzoxazepin-9-yl]ethyl}-3-methyl-1H-pyrazolo[3,4-d]pyrimidin-4-amine]", "IC50": "≤ 100"},
      {"compound": "Cc1nn(C(C)c2cc(Cl)c(C#N)c3c2OC(C)CN(CC(N)=O)C3)c2ncnc(N)c12", "note": "(single isomer, unassigned) [Example 109, 2-[9-[1-(4-amino-3-methyl-1H-pyrazolo[3,4-d]pyrimidin-1-yl)ethyl]-7-chloro-6-cyano-2-methyl-2,3-dihydro-1,4-benzoxazepin-4(5H)-yl]acetamide]", "IC50": "≤ 100"},
      {"compound": "Cc1nn(C(C)c2cc(Cl)c(C#N)c3c2OCCN(CCO)C3)c2ncnc(N)c12", "note": "(stereo not shown) [Example 58, 9-[1-(4-Amino-3-methyl-1H-pyrazolo[3,4-d]pyrimidin-1-yl)ethyl]-7-chloro-4-(2-hydroxyethyl)-2,3,4,5-tetrahydro-1,4-benzoxazepine-6-carbonitrile]", "IC50": "≤ 100"},
      {"compound": "Cc1nn(C(C)c2cc(Cl)c(F)c3c2OC[C@H](C)N(S(C)(=O)=O)C3)c2ncnc(N)c12", "note": "(single isomer, unassigned) [Example 36]", "IC50": "500 to 1000"},
      {"compound": "CCNC(=O)N1CC(N2Cc3c(C#N)c(Cl)cc(C(C)n4nc(C)c5c(N)ncnc54)c3OC(C)C2)C1", "note": "(single isomer, unassigned) [Example 98, 3-[9-[1-(4-amino-3-methyl-1H-pyrazolo[3,4-d]pyrimidin-1-yl)ethyl]-7-chloro-6-cyano-2-methyl-2,3-dihydro-1,4-benzoxazepin-4(5H)-yl]-N-ethylazetidine-1-carboxamide]", "IC50": "≤ 100"},
      {"compound": "Cc1nn(C(C)c2cc(Cl)c(C#N)c3c2OC(C)CN(Cc2cccnc2)C3)c2ncnc(N)c12", "note": "(single isomer, unassigned) [Example 59, 9-[1-(4-Amino-3-methyl-1H-pyrazolo[3,4-d]pyrimidin-1-yl)ethyl]-7-chloro-2-methyl-4-(pyridin-3-ylmethyl)-2,3,4,5-tetrahydro-1,4-benzoxazepine-6-carbonitrile]", "IC50": "≤ 100"}
    ]}
  ]
}
